We go through 10 molecules from US12516053B2, “Bcl-2 inhibitors” (BEIGENE, LTD., priority 2019, dated 2026).

Read-outs that look alike come from different tables or passages of the source.

Assay [1] addresses Recombinant human Bcl-2 protein (Homo sapiens, UniProt P10415). Nature of the assay: Bcl-2 TR-FRET assay. The conditions noted are these: TR-FRET, 0.05 nM Bcl-2, FITC labeled Bak peptide 0.5 nM; read-out: Biochemical assay (IC50, nM) Bcl-2 WT. The class given is binding. The protocol:
Compounds disclosed herein were tested for blocking of Bcl-2 protein with its ligand in an assay based on Time-Resolved Fluorescence Resonance Energy Transfer (TR-FRET) methodology. Recombinant human 0.05 nM Bcl-2 protein was pre-incubated with a serial dilution of compounds disclosed herein (top final concentration is 1 uM or 0.1 uM or 0.02 uM or 0.01 uM, 10 points) at room temperature for 0.5 hour in an assay buffer containing 20 mM potassium phosphate buffer, pH 7.5, 50 mM NaCl, 1 mM EDTA, 0.05% Tween-20, 0.01% BSA. […] The inhibition percentage of Bcl-2 interaction with its ligand in presence of increasing concentrations of compounds was calculated based on the TR-FRET signals. The IC50 for each compound was derived from fitting the data to the four-parameter logistic equation by Graphpad Prism software or Dotmatics.
Background: Time-resolved FRET reads energy transfer from a long-lived donor to a nearby acceptor.

The test system of assay [2] is RS4;11 (BCL-2 dependent acute lymphoblastic leukemia cell line). The experiment in a line: RS4;11 cell proliferation assay. The class given is cell-based. The conditions noted are these: CellTiter-GLO, read-out: Cellular proliferation assay (IC50, nM) RS4. As to the method:
RS4;11 Cell Proliferation Assay:
Each compound was serially diluted with 1 μM as the maximum concentration. To test the apoptotic effect of the compounds, the cells were seeded at 50,000 in 180 μl per well in 96-well plates and treated with 10-point dilution series of each compound for 48 hrs at 37° C. Cell viability was assessed after the treatment using CellTiter-GLO luminescent assay (Promega) according to the manufacturer's recommendations. Briefly, 30 μl of CellTiter-GLO reagent was added into 200 μl of cell culture, Mixture was agitated on an orbital shaker for 5 mins to ensure cell lysis followed by 7 mins incubation at room temperature to allow development and stabilization of luminescent signals, which corresponded to quantity of ATP and thus the quantity of metabolically active cells. Luminescent signals were measured using PHERAstar FS reader (BMG). Mean IC50 values for cell viability were determined with GraphPad Prism software.
For orientation: Cellular ATP, detected with luciferase, serves as a proxy for viable cell number.

Assay [3] concerns the target recombinant human Bcl-2-G101V protein (Homo sapiens, UniProt P10415, G101V). The experiment in a line: Bcl-2-G101V TR-FRET assay. The class given is binding. As to conditions: TR-FRET, 0.1 nM Bcl-2-G101V, FITC labeled Bak peptide 5 nM; read-out: Biochemical assay (IC50, nM) Bcl-2 G101V. An excerpt: The IC50 for each compound was derived from fitting the data to the four-parameter logistic equation by Graphpad Prism software or Dotmatics.

The subject of assay [4] is Molt-4 (Bcl-xL-dependent ALL cell line). The experiment in a line: Molt-4 cell proliferation assay. It is filed as cell-based. As to conditions: CellTiter-GLO, read-out: Cellular proliferation assay (IC50, nM) Molt-4. From the text:
Molt-4 Cell Proliferation Assay:
Each compound was serially diluted with 10 1M as the maximum concentration. The anti-proliferative IC50s of these compounds were similarly determined as a percentage of viable cells upon treatment compared to the untreated control using CellTiter-GLO luminescent assay.

Another assay addresses BA/F3-BCL-2 cells (Homo sapiens, UniProt P10415). The experiment in a line: BA/F3 cell proliferation assay, BCL-2 wild type. The class given is cell-based, Murine. The conditions noted are these: 24 hrs treatment, 3% FBS, CellTiter-Glo, geometric mean of 3 experiments; read-out: Cellular proliferation assay (IC50, nM) Bcl-2 WT; BaF3 cell. As to the method:
(§1) BA/F3 cell Proliferation Assay:
(§2) The cells were treated with a 10-point dilution series of compounds for 24 hrs. After the compound treatment, 30 μl of CellTiter-Glo reagent was added in each well. The effects on proliferation were determined using Cell TiterGlo reagent (Promega) according to the manufacturer's instructions. Luminescent signals were measured using PHERAstar FS plate reader (BMG Labtech). ICS50 values for cell viability were determined with GraphPad Prism software and were the geometric mean of 3 independent experiments.

In a further assay the target is BA/F3-BCL-2 G101V cells (Homo sapiens, UniProt P10415, G101V, cells depend on it). The experiment in a line: BA/F3 cell proliferation assay, Bcl-2 G101V. The class given is cell-based, Murine. The conditions noted are these: 24 hrs treatment, 3% FBS, CellTiter-Glo, geometric mean of 3 experiments; read-out: Cellular proliferation assay (IC50, nM) Bcl-2 G101V; BaF3 cell. As to the method: as §1, §2

The mark [5] stands for this setting: Homo sapiens, RS4-11, 48 hrs treatment.

`CC(C)c1ccccc1[C@@H]1CCCN1C1CC2(C1)CN(c1ccc(C(=O)NS(=O)(=O)c3ccc(NC[C@H]4COCCO4)c([N+](=O)[O-])c3)c(N3CCCOc4nc5[nH]ccc5cc43)c1)C2` [Example B15, N-((4-((((S)-1,4-dioxan-2-yl)methyl)amino)-3-nitrophenyl)sulfonyl)-2-(3,4-dihydro-2H-pyrrolo[3′,2′:5,6]pyrido[2,3-b][1,4]oxazepin-1(7H)-yl)-4-(6-((S)-2-(2-isopropylphenyl)pyrrolidin-1-yl)-2-azaspiro[3,3]heptan-2-yl)benzamide]: the IC50 was 0.14 nM in assay [1]; 8 nM in assay [2] (setting [5]); 5.2 nM in assay [3]; greater than 10000 nM in assay [4] (Homo sapiens, MOLT-4).
With `CC(C)c1ccccc1[C@@H]1CCCN1C1CC2(CCN(c3ccc(C(=O)NS(=O)(=O)c4ccc(NC[C@H]5CC[C@](C)(O)CC5)c([N+](=O)[O-])c4)c(N4CCCOc5nc6[nH]ccc6cc54)c3)CC2)C1` [Example B1], the IC50 was 0.04 nM in assay [1]; 1.7 nM in assay [2] (setting [5]); 1.9 nM in assay [3]; 6730 nM in assay [4] (Homo sapiens, MOLT-4); 1 nM on BA/F3-BCL-2 cells. Besides, the GI50 on BA/F3-BCL-2 G101V cells stood at 15.5 nM.
On to `CC(C)c1ccccc1[C@@H]1CCCN1C1CC2(CCN(c3ccc(C(=O)NS(=O)(=O)c4ccc(NCC5(F)CCOCC5)c([N+](=O)[O-])c4)c(N4CCCOc5nc6[nH]ccc6cc54)c3)CC2)C1` [Example B2, (S)-2-(3,4-dihydro-2H-pyrrolo[3′,2′:5,6]pyrido[2,3-b][1,4]oxazepin-1(7H)-yl)-N-((4-(((4-fluorotetrahydro-2H-pyran-4-yl)methyl)amino)-3-nitrophenyl)sulfonyl)-4-(2-(2-(2-isopropylphenyl)pyrrolidin 1-yl)-7-azaspiro[3,5]nonan-7-yl)benzamide], for which the IC50 in assay [1] worked out at 0.05 nM; in assay [2] (setting [5]) it was 1.7 nM; in assay [3], 1.8 nM; in assay [4] (Homo sapiens, MOLT-4), 5560 nM; on BA/F3-BCL-2 cells it was 0.82 nM. Moreover, at BA/F3-BCL-2 G101V cells, the GI50 is 7.8 nM.
For `CC(C)c1ccccc1[C@@H]1CCCN1C1CC2(C1)CN(c1ccc(C(=O)NS(=O)(=O)c3ccc(NCC4(F)CCOCC4)c([N+](=O)[O-])c3)c(N3CCCOc4nc5[nH]ccc5cc43)c1)C2` [Example B14, (S)-2-(3,4-dihydro-2H-pyrrolo[3′,2′:5,6]pyrido[2,3-b][1,4]oxazepin-1(7H)-yl)-N-((4-(((4-fluorotetrahydro-2H-pyran-4-yl)methyl)amino)-3-nitrophenyl)sulfonyl)-4-(6-(2-(2-isopropylphenyl)pyrrolidin-1-yl)-2-azaspiro[3.3]heptan-2-yl)benzamide], the IC50 in assay [1] was 0.11 nM; in assay [2] (setting [5]), 4.8 nM; in assay [3] it was 3.1 nM; in assay [4] (Homo sapiens, MOLT-4), greater than 10000 nM; at BA/F3-BCL-2 cells it was 2.4 nM. In addition, the GI50 at BA/F3-BCL-2 G101V cells worked out at 26.5 nM.
As to `CC(C)c1ccccc1[C@@H]1CCCN1C1CC2(CCN(c3ccc(C(=O)NS(=O)(=O)c4cc5c(c([N+](=O)[O-])c4)N[C@H](C[C@H]4CC[C@H](O)CC4)CO5)c(Oc4cnc5[nH]ccc5c4)c3)CC2)C1` [Example A4, 2-((1H-pyrrolo[2,3-b]pyridin-5-yl)oxy)-N—(((R)-3-(((1R,4R)-4-hydroxycyclohexyl)methyl)-5-nitro-3,4-dihydro-2H-benzo[b][1,4]oxazin-7-yl)sulfonyl)-4-(2-((S)-2-(2-isopropylphenyl)pyrrolidin-1-yl)7-azaspiro[3,5]nonan-7-yl)benzamide], the IC50 in assay [1] is 0.025 nM; in assay [2] (setting [5]), 0.47 nM; in assay [3], 0.86 nM; in assay [4] (Homo sapiens, MOLT-4) it was greater than 10000 nM; on BA/F3-BCL-2 cells, 0.3 nM. Further, the GI50 at BA/F3-BCL-2 G101V cells amounted to 9.8 nM.
In the case of `CC(C)c1ccccc1[C@@H]1CCCN1C1CC2(CCN(c3ccc(C(=O)NS(=O)(=O)c4ccc(NCC5(F)CCOCC5)c([N+](=O)[O-])c4)c(N4CCOc5nc6[nH]ccc6cc54)c3)CC2)C1` [Example B4, (S)-2-(2,3-dihydropyrrolo[3′,2′:5,6]pyrido[2,3-b][1,4]oxazin-1(6H)-yl)-N-((4-(((4-fluorotetrahydro-2H-pyran-4-yl)methyl)amino)-3-nitrophenyl)sulfonyl)-4-(2-(2-(2-isopropylphenyl)pyrrolidin-1-yl)-7-azaspiro[3,5]nonan-7-yl)benzamide], the IC50 in assay [1] is 0.018 nM; in assay [2] (setting [5]), 0.58 nM; in assay [3], 1.2 nM; in assay [4] (Homo sapiens, MOLT-4), 1420 nM.
Take “2-(2,3-dihydropyrrolo[3′,2′:56]pyrido[2,3-b][1,4]oxazin-1(6H)-yl)-N-((4-((((1r,4r)-4-hydroxy-4-methylcyclohexyl)methyl)amino)-3-nitrophenyl)sulfonyl)-4-(2-((S)-2-(2-isopropylphenyl)pyrrolidin-1-yl)-7-azaspiro[3,5]nonan-7-yl)benzamide [Example B3]”: the IC50 in assay [1] came out at 0.063 nM; in assay [2] (48 hrs treatment), 1.1 nM; in assay [3], 0.94 nM; in assay [4], 4540 nM; at BA/F3-BCL-2 cells, 1.1 nM. In addition, the GI50 at BA/F3-BCL-2 G101V cells stood at 10.8 nM.
Consider `CC(C)c1ccccc1[C@@H]1CCCN1C1CC2(CCN(c3ccc(C(=O)NS(=O)(=O)c4cc5c(c([N+](=O)[O-])c4)N[C@H](C[C@H]4CC[C@@H](O)CC4)CO5)c(Oc4cnc5[nH]ccc5c4)c3)CC2)C1` [Example A5, 2-((1H-pyrrolo[2,3-b]pyridin-5-yl)oxy)-N—(((R)-3-(((1s,4S)-4-hydroxycyclohexyl)methyl)-5-nitro-3,4-dihydro-2H-benzo[b][1,4]oxazin-7-yl)sulfonyl)-4-(2-((S)-2-(2-isopropylphenyl)pyrrolidin-1-yl)-7-azaspiro[3,5]nonan-7-yl)benzamide], for which the IC50 in assay [1] is 0.024 nM; in assay [2] (setting [5]), 1 nM; in assay [3], 0.83 nM; in assay [4] (Homo sapiens, MOLT-4) it was 5160 nM; at BA/F3-BCL-2 cells, 0.41 nM. For the same molecule, at BA/F3-BCL-2 G101V cells, the GI50 was 7.5 nM.
On to `CC(C)c1ccccc1[C@@H]1CCCN1C1CC2(C1)CN(c1ccc(C(=O)NS(=O)(=O)c3ccc(NC[C@H]4CC[C@](C)(O)CC4)c([N+](=O)[O-])c3)c(N3CCOc4nc5[nH]ccc5cc43)c1)C2` [Example B11, 2-(2,3-dihydropyrrolo[3′,2′:5,6]pyrido[2,3-b][1,4]oxazin-1(6H)-yl)-N-((4-((((1R,4R)-4-hydroxy-4-methylcyclohexyl)methyl)amino)-3-nitrophenyl)sulfonyl)-4-(6-((S)-2-(2-isopropylphenyl)pyrrolidin-1-yl)-2-azaspiro[3.3]heptan-2-yl)benzamide], for which the IC50 is 0.041 nM in assay [1]; 3.2 nM in assay [2] (setting [5]); 2.8 nM in assay [3]; greater than 10000 nM in assay [4] (Homo sapiens, MOLT-4).
As to `CC(C)c1ccccc1[C@@H]1CCCN1C1CC2(CCN(c3ccc(C(=O)NS(=O)(=O)c4ccc(NC[C@H]5CC[C@](C)(O)CC5)c([N+](=O)[O-])c4)c(N4c5cc6cc[nH]c6nc5OCC4C)c3)CC2)C1` (stereo partly drawn) [Example B10, N-((4-((((1R,4R)-4-hydroxy-4-methylcyclohexyl)methyl)amino)-3-nitrophenyl)sulfonyl)-4-(2-((S)-2-(2-isopropylphenyl)pyrrolidin-1-yl)-7-azaspiro[3,5]nonan-7-yl)-2-(2-methyl-2,3-dihydropyrrolo[3′2′:5,6]pyrido[2,3-b][1,4]oxazin-1(6H)-yl)benzamide], the IC50 was 0.04 nM in assay [1]; 1 nM in assay [2] (setting [5]); 1.6 nM in assay [3]; greater than 10000 nM in assay [4] (Homo sapiens, MOLT-4).
